Experimental findings from patent US20040171680A1, “Treating Syndrome X with substituted tetralins and indanes” (priority 2002, published 2004) are described below.

The term EC50 denotes the midpoint of the concentration-response curve.

Read-outs that look alike come from different tables or passages of the source.

One assay deals with T1, PPARα (Rattus norvegicus, UniProt P37230).
T1 construct: H4IIE rat hepatoma cell line was obtained from ATCC; host or cells: H4IIE rat hepatoma cells
T1 sequence (P37230 1-468): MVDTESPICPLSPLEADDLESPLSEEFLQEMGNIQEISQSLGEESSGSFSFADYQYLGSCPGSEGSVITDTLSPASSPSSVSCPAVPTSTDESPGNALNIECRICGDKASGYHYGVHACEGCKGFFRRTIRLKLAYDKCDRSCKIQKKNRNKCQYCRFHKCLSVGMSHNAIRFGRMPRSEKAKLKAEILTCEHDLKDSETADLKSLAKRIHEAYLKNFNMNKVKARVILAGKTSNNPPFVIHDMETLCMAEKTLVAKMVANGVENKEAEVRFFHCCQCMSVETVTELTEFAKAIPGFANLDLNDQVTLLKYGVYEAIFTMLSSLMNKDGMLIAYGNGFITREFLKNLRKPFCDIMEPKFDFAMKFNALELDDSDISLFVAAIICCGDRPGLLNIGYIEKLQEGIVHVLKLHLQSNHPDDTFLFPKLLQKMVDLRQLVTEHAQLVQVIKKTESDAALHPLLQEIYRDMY
Kind of assay: HD bDNA Assay (HD gene induction). It is filed as cell-based. On the procedure:
HD bDNA Assay H4IIE rat hepatoma cell line was obtained from ATCC. Cells were cultured in 175 cm^2 tissue culture flask or seeded in 96-well plate with (high serum content, 10% fetal bovine serum and 10% calf serum) culture medium and maintained at 37° C. and 5% CO2 throughout study. Twenty-four hours after the initial seeding of the 96-well plate by hand (approximate 100,000/well), the HD gene induction assay was initiated. Media was removed and replaced with 100 ul of low serum culture media (5% charcoal/dextran treated calf serum) containing vehicle (DMSO) or test compounds or standard. Cells returned to incubator for 24 hours culture. At the termination of the challenge, 50 ul lysis buffer with HD gene specific CE, LE, BL probes was added directly into each well to initiate the bDNA HD mRNA assay. The branched DNA assay was performed according to the manufacturer's protocol (Bayer Diagnostics; Emeryville. Calif.). At the end of the assay, the luminescence was quantitated in Dynex MLX microtiter plate luminometer. EC50's were determined by non-linear regression with a sigmoidal fit utilizing Graphpad Prism.

The subject of another assay is db/db mice. The experiment in a line: Oral dosing in female db/db mice. The class given is in vivo. The conditions noted are these: Mus musculus, 240 h, 1.0 mpk, 10 day oral dosing, % change compared to vehicle. On the procedure:
The compound was prepared as suspensions in 0.5% hydroxypropylmethylcellulose (Dow Chemical, Midland, Mich.). The dosing volume was 10 mL/kg of body weight. […] Body weight was measured in the mornings on Day 1, prior to dosing, and on Day 12 before bleeding. 18-24 hours after the final dose for each group, the mice were anesthetized with CO2/O2 (70:30) and bled by retro-orbital sinus puncture into micro-tubes containing clog activator and then put in ice. The serum samples were prepared by centrifugation. Serum glucose and triglycerides were determined by using COBAS Mira Plus blood chemistry analyzer (Roche Diagnostics, N.J.). Serum insulin was measured by using ALPCO insulin ELISA kit.
Statistical analysis was performed using the program Prism (Graphpad, Monrovia, Calif.) and performing one-way ANOVA with a Dunnet's multiple comparison test.

The next assay has as its target T2, PPARδ (Homo sapiens, UniProt Q03181).
T2 construct: a Gal4-Luciferase reporter is co-transfected
T2 sequence (Q03181 171-441 limits assumed): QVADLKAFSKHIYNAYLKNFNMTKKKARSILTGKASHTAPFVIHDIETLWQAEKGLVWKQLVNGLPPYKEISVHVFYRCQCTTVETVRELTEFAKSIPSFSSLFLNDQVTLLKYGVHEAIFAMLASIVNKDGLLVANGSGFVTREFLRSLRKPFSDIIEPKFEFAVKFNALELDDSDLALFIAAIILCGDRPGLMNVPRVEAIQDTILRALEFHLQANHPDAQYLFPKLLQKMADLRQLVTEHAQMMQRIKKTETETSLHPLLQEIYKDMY
Kind of assay: Transfection Assay for PPARδ Receptors (PPAR-Gal4 / Gal4-Luciferase reporter in HEK293 cells). The class given is cell-based. As to conditions: fold induction; PPARδ standard: FI = 36.1. As to the method:
Transfection Assay for PPARδ Receptors
HEK293 cells were grown in DMEM/F-12 Media supplemented with 10% FBS and glutamine (GIBCOBRL). The cells were co-transfected with DNA for PPAR-Gal4 receptor and Gal4-Luciferase Reporter using the DMRIE-C Reagent. On the following day, the DNA-containing medium were replaced with 5% Charcoal treated FBS growth medium. After six hours, cells were seeded in 96 well plate and incubated at 37° C. in CO2 incubator overnight. Cells were challenged by test compounds and incubated for 24 hours at 37° C. in 5% CO2 incubator. Luciferase activity was assayed using the Steady-Glo Luciferase Assay Kit from Promega. DMRIE-C Reagent was purchased from GIBCO Cat. No.10459-014. OPTI-MEM I Reduced Serum Medium was purchased from GIBCO Cat. No. 31985. Steady-Glo Luciferase Assay Kit was obtained from Promega Part# E254B.
Background: Reporter assays use an easily measured gene product as a stand-in for the process of interest.

The mark [1] stands for this setting: in section F, target not named there, values match the PPARα column, read-out: EC50.
Setting [2] is: H4IIE rat hepatoma cells, 24 hours, read-out: PPARα EC50.

Take `CCN(C(=O)Nc1ccc(OC(F)(F)F)cc1)C1CCc2cc(SC(C)(C)C(=O)O)ccc2C1` (stereo not drawn) [Example 1, 2-{6-[1-Ethyl-3-(4-trifluoromethoxyphenyl)ureido]-5,6,7,8-tetrahydronaphthalen-2-ylsulfanyl}-2-methylpropionic acid]: the EC50 at PPARα (setting [1]) turned out to be 23 nM. The change in vivo at 1 mg/kg in the assay with db/db mice (read-out: Δ BW) was -12%; in the assay on db/db mice (read-out: Δ Plasma Glucose), -73%; in the assay with db/db mice (read-out: Δ Plasma Insulin), -46%; with db/db mice (read-out: Δ Plasma TG), -52%.
Turning to `CCCCCCN(C(=O)Nc1ccc(SC(F)(F)F)cc1)C1Cc2ccc(SC(C)(C)C(=O)O)cc2C1` (stereo not drawn) [Example 15, 2-Methyl-2-{2-[1-hexyl-3-(4-trifluoromethylsulfanylphenyl)ureido]indan-5-ylsulfanyl}propionic acid], the EC50 at PPARα (setting [1]) is 123 nM. Moreover, the “PPARδ FI” value at PPARδ worked out at 1.2.
On the same counts, the results for `C=CCCCN(C(=O)Nc1ccc(OC(F)(F)F)cc1)C1Cc2ccc(SC(C)(C)C(=O)O)cc2C1` (stereo not drawn) [Example 19, 2-Methy-2-{2-[1-pent-4-enyl-3-(4-trifluoromethoxyphenyl)ureido]indan-5-ylsulfanyl}propionic acid] are 125 nM and 1.4.
`CCCCN(C(=O)Nc1ccc(OC(F)(F)F)cc1)C1CCc2cc(SC(C)(C)C(=O)O)ccc2C1` (stereo not drawn) [Example 22, 2-{6-[1-Butyl-3-(4-trifluoromethoxyphenyl)ureido]-5,6,7,8-tetrahydronaphthalen-2-ylsulfanyl}-2-methylpropionic acid]: the EC50 at PPARα (setting [1]) turned out to be 219 nM.
With `CCCCN(C(=O)Nc1ccc(SC(F)(F)F)cc1)C1CCc2cc(SC(C)(C)C(=O)O)ccc2C1` (stereo not drawn) [Example 23, 2-{6-[1-Butyl-3-(4-trifluoromethylsulfanylphenyl)ureido]-5,6,7,8-tetrahydronaphthalen-2-ylsulfanyl}-2-methylpropionic acid], the EC50 at PPARα (setting [1]) is 244 nM.
Same read-out and setting: the result for `CCCCCCN(C(=O)Nc1ccc(OC(F)(F)F)cc1)C1CCc2cc(SC(C)(C)C(=O)O)ccc2C1` (stereo not drawn) [Example 24, 2-{6-[1-Hexyl-3-(4-trifluoromethoxyphenyl)ureido]-5,6,7,8-tetrahydronaphthalen-2-ylsulfanyl}-2-methylpropionic acid] reads 235 nM.
On to `CCN(C(=O)Nc1ccc(OC(F)(F)F)c(Br)c1)C1Cc2ccc(SC(C)(C)C(=O)O)cc2C1` (stereo not drawn) [Example 25, 2-{2-[3-(3-Bromo-4-trifluoromethoxyphenyl)-1-ethylureido]indan-5-ylsulfanyl}-2-methylpropionic acid], for which the EC50 on PPARα (setting [2]) was determined as 208 nM. Also, the “PPARδ FI” value at PPARδ is recorded as 4.5.
As to `CN(C)c1ccc(NC(=O)N(C)C2Cc3ccc(SC(C)(C)C(=O)O)cc3C2)cc1` (stereo not drawn) [Example 27, 2-{2-[3-(4-Dimethylaminophenyl)-1-methylureido]indan-5-ylsulfanyl}-2-methylpropionic acid], the EC50 at PPARα (setting [2]) amounted to 294 nM.
On the same count and under the same terms, the result for `CCCCCN(C(=O)Nc1ccc2c(c1)CCC2)C1Cc2ccc(SC(C)(C)C(=O)O)cc2C1` (stereo not drawn) [Example 29, 2-[2-(3-Indan-5-yl-1-pentylureido)indan-5-ylsulfanyl}-2-methylpropionic acid] reads 382 nM.
`CCCCCN(C(=O)Nc1ccc(C)c([N+](=O)[O-])c1)C1Cc2ccc(SC(C)(C)C(=O)O)cc2C1` (stereo not drawn) [Example 30, 2-Methyl-2-{2-[3-(4-methyl-3-nitrophenyl)-1-pentylureido]indan-5-ylsulfanyl} propionic acid]: the EC50 on PPARα (setting [2]) worked out at 385 nM.
On the same count and under the same terms, the result for `CC(C)(Sc1ccc2c(c1)CC(N(Cc1cccc3ccccc13)C(=O)Nc1ccc(OC(F)(F)F)cc1)C2)C(=O)O` (stereo not drawn) [Example 31, 2-Methyl-2-{2-[1-naphthalen-1 ylmethyl-3-(4-trifuoromethoxyphenyl)-ureido]indan-5-ylsulfanyl}-propionic acid] reads 497 nM.
Still for that read-out and setting: the result for `COCCN(C(=O)Nc1ccc(SC(F)(F)F)cc1)C1Cc2ccc(SC(C)(C)C(=O)O)cc2C1` (stereo not drawn) [Example 34, 2-{2-[1-(2-Methoxyethyl)-3-(4-trifluoromethylsulfanylphenyl)ureido]indan-5-ylsulfanyl}-2-methylpropionic acid] reads 657 nM.
On the same count and under the same terms, as for `CC(C)(Sc1ccc2c(c1)CC(N(CCCC(F)(F)F)C(=O)Nc1ccc(OC(F)(F)F)cc1)C2)C(=O)O` (stereo not drawn) [Example 36, 2-Methyl-2-{2-[1-(4,4,4-trifluorobutyl)-3-(4-trifluoromethoxyphenyl)ureido]indan-5-ylsulfanyl}propionic acid], the figure is 796 nM; as for `COC(=O)CCCCCN(C(=O)Nc1ccc(C(C)C)cc1)C1Cc2ccc(SC(C)(C)C(=O)O)cc2C1` (stereo not drawn) [Example 38, 6-[1-[5-(1-Carboxy-1-methylethylsulfanyl)indan-2-yl]-3-(4-isopropylphenyl)-ureido]hexanoic acid methyl ester], 950 nM; as for `CC(C)(Sc1ccc2c(c1)CC(N(CC1CCCCC1)C(=O)Nc1ccc(OC(F)(F)F)cc1)C2)C(=O)O` (stereo not drawn) [Example 40, 2-{2-[1-Cyclohexylmethyl-3-(4-trifluoromethoxyphenyl)ureido]indan-5-ylsulfanyl]-2-methylpropionic acid], 1300 nM.
Consider `CC(C)CN(C(=O)Nc1ccc(OC(F)(F)F)cc1)C1Cc2ccc(SC(C)(C)C(=O)O)cc2C1` (stereo not drawn) [Example 41, 2-{2-[1-Isobutyl-3-(4-trifluoromethoxyphenyl)ureido]indan-5-ylsulfanyl}-2-methylpropionic acid], for which, on PPARα (setting [2]), the EC50 worked out at 2210 nM.
Still for that read-out and setting: as for `CCCCCCCN(C(=O)Nc1ccc(Cl)c(Cl)c1)C1Cc2ccc(SC(C)(C)C(=O)O)cc2C1` (stereo not drawn) [Example 42, 2-{2-[3-(3,4-Dichlorophenyl)-1-heptylureido]indan-5-ylsulfanyl}-2-methylpropionic acid], the figure is 2340 nM.
In the case of `CN(C)CCN(C(=O)Nc1ccc(SC(F)(F)F)cc1)C1Cc2ccc(SC(C)(C)C(=O)O)cc2C1` (stereo not drawn) [Example 43, 2-{2-[1-(2-Dimethylaminoethyl)-3-(4-trifluoromethylsulfanylphenyl)ureido]indan-5-ylsulfanyl}-2-methylpropionic acid], the EC50 at PPARα (setting [2]) was determined as 2990 nM.
On to `CCCCCCCN(C(=O)Nc1cccc(Cl)c1)C1Cc2ccc(SC(C)(C)C(=O)O)cc2C1` (stereo not drawn) [Example 44, 2-{2-[3-(3-Chlorophenyl)-1-heptylureido]indan-5-ylsulfanyl}-2-methylpropionic acid], for which the EC50 on PPARα (setting [2]) was 2090 nM.
Same read-out and setting: the result for `CCCCCCCN(C(=O)Nc1ccc(OC(F)(F)F)cc1)C1Cc2ccc(SC3(C(=O)O)CCC3)cc2C1` (stereo not drawn) [Example 45, 1-{2-[1-Heptyl-3-(4-trifluoromethoxyphenyl)ureido]indan-5-ylsulfanyl}-cyclobutanecarboxylic acid] reads 780 nM.
